For 4 compounds, IC50, MIC and IC90 results are on record in US11098055B2, “Ester ACC inhibitors and uses thereof” (Gilead Apollo, LLC, priority 2015, dated 2021).

Usually IC50 stands for the concentration needed to halve the response being measured. By MIC is commonly meant the lowest concentration that inhibits growth of the organism.

Converted amounts (≈) assume the structure as drawn. Where two headings read alike, the source gives them in different places.

In experiment [1] the test system is ACC1. As to conditions: enzyme isolated from rat, mouse, monkey and human; cited from earlier work.
Experiment [2] has as its system ACC2. As to conditions: enzyme isolated from rat, mouse, monkey and human; cited from earlier work.
Experiment [3] addresses hACC2 (Homo sapiens, UniProt O00763). The experiment in a line: In vitro ACC2 inhibition assay (ADP-Glo), human ACC2. In kind it is biochemical. As to the method:
(§1) An exemplary procedure for the in vitro ACC inhibition assay, which can be used to determine the inhibitory action of compounds of the invention toward either human (hACC2) or fungal (fACC2) ACC2, follows. The ADP-Glo™ Kinase Assay kit from Promega was used. The ADP-Glo™ Kinase Assay is a luminescent ADP detection assay to measure enzymatic activity by quantifying the amount of ADP produced during an enzyme reaction. The assay is performed in two steps; first, after the enzyme reaction, an equal volume of ADP-Glo™ Reagent is added to terminate the reaction and deplete the remaining ATP. Second, the Kinase Detection Reagent is added to simultaneously convert ADP to ATP and allow the newly synthesized ATP to be measured using a luciferase/luciferin reaction. Luminescence can be correlated to ADP concentrations by using an ATP-to-ADP conversion curve. The detailed procedure is as follows. 50 μL of the compound being tested (600 μM in DMSO) was added to a 384-well dilution plate. The compound was diluted 1:3 in succession in DMSO for each row for 11 wells. 0.5 μL ACC2 working solution was added to 384-well white Optiplate assay plate. 0.5 μL diluted compound solution in each column from step 2 was added to assay plate, each row containing 2 replicates. For the last 2 rows, 0.5 μL negative control (DMSO) was added in one row and 0.5 μL positive control (compound I-97) in the other. The plates were incubated at room temperature for 15 minutes. 5 μL substrate working solution was added to each well to initiate reaction. Final ACC2 reaction concentrations consist of: 5 nM ACC2, 20 μM ATP, 20 μM acetyl-CoA, 12 mM NaHCO3, 0.01% Brij35, 2 mM DTT, 5% DMSO, test compound concentrations: 30 μM, 10 μM, 3.33 μM, 1.11 μM, 0.37 μM, 0.123 μM, 0.0411 μM, 0.0137 μM, 0.00457 μM, 0.00152 μM, and 0.00051 μM. Plates were incubated at room temperature for 60 minutes. 10 μL ADP glo reagent was added. Plates were incubated at room temperature for 40 minutes. 20 μL kinase detection reagent was added. Plates were incubated at room temperature for 40 minutes, and then read on a Perkin Elmer EnVision 2104 plate reader for luminescence as Relative Light Units (RLU).
(§2) Data for each concentration, as well as the positive and negative controls, were averaged, and the standard deviation calculated. Percent inhibition was calculated by the formula: 100×(average negative control−compound)/(average negative control−average positive control). The IC50 for each compound was calculated by fitting the data with a non-linear regression equation: Y=Bottom+(Top−Bottom)/(1+10^((Log IC50−X)*HillSlope)), where X is the log of compound concentration and Y is percent inhibition.
A general note: In ADP-Glo the light output rises with the ADP produced.

In experiment [4] the target is fACC2 (UniProt Q00955). Briefly: In vitro ACC2 inhibition assay (ADP-Glo), fungal ACC2. In kind it is biochemical. Here is the method:
as §1, §2

Experiment [5] relates to C. albicans ATCC 90028. Briefly: Anti-Fungal (Candida) Activity Assay, broth microtiter MIC. In kind it is cell-based. To be noted: ATCC90028, 48 h, 3 replicates, MIC read at 48 h. As to the method:
(§3) Compounds of the present invention were evaluated in an Anti-Fungal Activity Assay. An exemplary procedure for the assay, which measures the susceptibility of various Candida species to anti-fungal compounds, follows. Compounds to be tested (including fluconazole and amphotericin B) were dissolved in DMSO to obtain a solution having a concentration of 1 mg/mL. These stock solutions were sterile filtered using a 0.22 um nylon syringe filter, then diluted in sterile water to achieve a final concentration of 128 μg/mL.
(§4) All species were grown from frozen stock by directly plating on to freshly prepared Sabouraud Dextrose agar (BD, Difco) and incubated overnight in ambient air at 35° C. for 24 h. A direct suspension was prepared in RPMI 1640+MOPS (Lonza, Biowhittaker) by taking individual colonies from the overnight cultures using sterile swabs soaked in sterile saline. The concentration of the suspension was determined using pre-determined standard curves. These suspensions were then diluted down to 5×10^3 CFU/mL to achieve a final concentration of 2.5×10^3 CFU/mL once added to the microtiter plate as per CLSI guidelines (M27-A3, Vol. 28 No. 14).
(§5) Broth microtiter MIC challenge plates were prepared following CLSI guidelines (M27-A3, Vol. 28 No. 14). The original CLSI guidelines focused on reading Candida MICs after 48 h of incubation. As reading after only 24 h offers a clear advantage of patient care, QC limits are being established for all drugs at 24 h. That being said there are no known interpretive breakpoints for amphotericin B at 24 h and the current fluconazole interpretive breakpoints are based on a 48 h reading. The MIC for the test compounds were recorded at 48 h. All MIC determinations were achieved by visually comparing the growth found in the antibiotic challenged wells to that of the growth control.

The test system of experiment [6] is C. parapsilosis ATCC 22019. The description is as above. In kind it is cell-based. As to conditions: Lodderomyces parapsilosis, ATCC22019, 48 h, 3 replicates, MIC read at 48 h. Here is the method:
as §3, §4, §5

Experiment [7] deals with C. krusei ATCC 6258. The experiment is described as above. As to conditions: Pichia kudriavzevii, ATCC6258, 48 h, 3 replicates, MIC read at 48 h. The class given is cell-based, Candida krusei. As to the method: as §3, §4, §5
For experiment [8], the system named is Fusarium moniliforme (Fm). The experiment in a line: Growth inhibition assay of fungal pathogens. The class given is cell-based. To be noted: Fusarium verticillioides, 48 h, read-out: Concentration at 90% Inhibition Fm. Here is the method: (§6) Compounds of the present invention were evaluated in a growth inhibition assay to determine the ability to control the growth of fungal pathogens, such as Botrtyis cinerea (Bc), Collectotrichum graminicola (Cg), Diplodia maydis (Dm), Fusarium moniliforme (Fm), Fusarium virguhforme (Fv), Phytophthora capsici (Pc), Rhizoctonia solani (Rs), and Septoria tritici (St). Compounds to be tested were dissolved in DMSO at 2.5 mg/ml to produce compound stock solutions (“stocks”). Stocks were diluted with DMSO by a five-fold dilution in a 96-well stock plate, and two sets of final concentrations of 50, 10, and 2 ppm or 2, 0.4, and 0.08 ppm were obtained in vitro. A set of positive controls was also prepared, with various concentrations of Soraphen (2, 0.4, and 0.08 ppm), Metalaxyl (1.1, 0.22, and 0.04 ppm), and Metconazole (2, 0.4, and 0.08 ppm or 0.2, 0.04, and 0.008 ppm) after the five-fold dilutions. Negative controls on each plate included 2% DMSO, water, and a blank (media+2% DMSO). Fungal spores were isolated from previously sub-cultured plates of Botrtyis cinerea (Bc), Collectotrichum graminicola (Cg), Diplodia maydis (Dm), Fusarium moniliforme (Fm), Fusarium virguliforme (Fv), Phytophthora capsici (Pc), and Septoria tritici (St). The isolated spores were diluted to individual concentrations with a 17% V8 liquid media. For Rhizoctonia solani (Rs) and Pythium irregulare, 1.5 mm mycelial plugs were used in place of spores and ¼ Potato Dextrose Broth (PDB) was used for dilution. The spore concentrations and plug sizes were based on growth curves generated at 48 hours for each pathogen. In a second 96-well plate, the spores or mycelial plugs, media, diluted compound solutions, and controls were combined. Once the compound was added, a true final concentration of compound in each well was measured by an OD600 reading, which adjusted for any compound precipitation that might have occurred in the well. Plate readings were repeated at both 24 and 48 hours. The blank negative control was used as a background subtraction. Additional visual ratings were performed at both 24 and 48 hours for checking on precipitation and confirming efficacy. Visual and OD600 ratings of the compounds at 48 hours were compared to the 2% DMSO negative control, and the percent of pathogen growth inhibition was determined based on those values.

Experiment [9] concerns Botrtyis cinerea (Bc). The experiment in a line: Growth inhibition assay of fungal pathogens. In kind it is cell-based. To be noted: 48 h, Table 4b, read-out: Concentration at 90% Inhibition Bc. As to the method: as §6
The subject of experiment [10] is Collectotrichum graminicola (Cg). Briefly: Growth inhibition assay of fungal pathogens. The class given is cell-based. To be noted: 48 h, Table 4b, read-out: Concentration at 90% Inhibition Cg. Here is the method:
as §6

The test system of experiment [11] is Diplodia maydis (Dm). The experiment in a line: Growth inhibition assay of fungal pathogens. In kind it is cell-based. To be noted: Stenocarpella maydis, 48 h, Table 4b, read-out: Concentration at 90% Inhibition Dm. As to the method: as §6
Experiment [12] concerns Fusarium virguliforme (Fv). The experiment in a line: Growth inhibition assay of fungal pathogens. The class given is cell-based. As to conditions: 48 h, Table 4b, read-out: Concentration at 90% Inhibition Fv. Here is the method:
as §6

For experiment [13], the system named is Phytophthora capsici (Pc). The experiment in a line: Growth inhibition assay of fungal pathogens. The class given is cell-based. As to conditions: 48 h, Table 4b, read-out: Concentration at 90% Inhibition Pc. As to the method:
as §6

For experiment [14], the system named is Rhizoctonia solani (Rs). The experiment in a line: Growth inhibition assay of fungal pathogens. In kind it is cell-based. As to conditions: 48 h, Table 4b, read-out: Concentration at 90% Inhibition Rs. As to the method:
as §6

Experiment [15] relates to Septoria tritici (St). Briefly: Growth inhibition assay of fungal pathogens. In kind it is cell-based. As to conditions: Zymoseptoria tritici, 48 h, Table 4b, read-out: Concentration at 90% Inhibition St. As to the method: as §6

Sequence of hACC2 (O00763 whole entry): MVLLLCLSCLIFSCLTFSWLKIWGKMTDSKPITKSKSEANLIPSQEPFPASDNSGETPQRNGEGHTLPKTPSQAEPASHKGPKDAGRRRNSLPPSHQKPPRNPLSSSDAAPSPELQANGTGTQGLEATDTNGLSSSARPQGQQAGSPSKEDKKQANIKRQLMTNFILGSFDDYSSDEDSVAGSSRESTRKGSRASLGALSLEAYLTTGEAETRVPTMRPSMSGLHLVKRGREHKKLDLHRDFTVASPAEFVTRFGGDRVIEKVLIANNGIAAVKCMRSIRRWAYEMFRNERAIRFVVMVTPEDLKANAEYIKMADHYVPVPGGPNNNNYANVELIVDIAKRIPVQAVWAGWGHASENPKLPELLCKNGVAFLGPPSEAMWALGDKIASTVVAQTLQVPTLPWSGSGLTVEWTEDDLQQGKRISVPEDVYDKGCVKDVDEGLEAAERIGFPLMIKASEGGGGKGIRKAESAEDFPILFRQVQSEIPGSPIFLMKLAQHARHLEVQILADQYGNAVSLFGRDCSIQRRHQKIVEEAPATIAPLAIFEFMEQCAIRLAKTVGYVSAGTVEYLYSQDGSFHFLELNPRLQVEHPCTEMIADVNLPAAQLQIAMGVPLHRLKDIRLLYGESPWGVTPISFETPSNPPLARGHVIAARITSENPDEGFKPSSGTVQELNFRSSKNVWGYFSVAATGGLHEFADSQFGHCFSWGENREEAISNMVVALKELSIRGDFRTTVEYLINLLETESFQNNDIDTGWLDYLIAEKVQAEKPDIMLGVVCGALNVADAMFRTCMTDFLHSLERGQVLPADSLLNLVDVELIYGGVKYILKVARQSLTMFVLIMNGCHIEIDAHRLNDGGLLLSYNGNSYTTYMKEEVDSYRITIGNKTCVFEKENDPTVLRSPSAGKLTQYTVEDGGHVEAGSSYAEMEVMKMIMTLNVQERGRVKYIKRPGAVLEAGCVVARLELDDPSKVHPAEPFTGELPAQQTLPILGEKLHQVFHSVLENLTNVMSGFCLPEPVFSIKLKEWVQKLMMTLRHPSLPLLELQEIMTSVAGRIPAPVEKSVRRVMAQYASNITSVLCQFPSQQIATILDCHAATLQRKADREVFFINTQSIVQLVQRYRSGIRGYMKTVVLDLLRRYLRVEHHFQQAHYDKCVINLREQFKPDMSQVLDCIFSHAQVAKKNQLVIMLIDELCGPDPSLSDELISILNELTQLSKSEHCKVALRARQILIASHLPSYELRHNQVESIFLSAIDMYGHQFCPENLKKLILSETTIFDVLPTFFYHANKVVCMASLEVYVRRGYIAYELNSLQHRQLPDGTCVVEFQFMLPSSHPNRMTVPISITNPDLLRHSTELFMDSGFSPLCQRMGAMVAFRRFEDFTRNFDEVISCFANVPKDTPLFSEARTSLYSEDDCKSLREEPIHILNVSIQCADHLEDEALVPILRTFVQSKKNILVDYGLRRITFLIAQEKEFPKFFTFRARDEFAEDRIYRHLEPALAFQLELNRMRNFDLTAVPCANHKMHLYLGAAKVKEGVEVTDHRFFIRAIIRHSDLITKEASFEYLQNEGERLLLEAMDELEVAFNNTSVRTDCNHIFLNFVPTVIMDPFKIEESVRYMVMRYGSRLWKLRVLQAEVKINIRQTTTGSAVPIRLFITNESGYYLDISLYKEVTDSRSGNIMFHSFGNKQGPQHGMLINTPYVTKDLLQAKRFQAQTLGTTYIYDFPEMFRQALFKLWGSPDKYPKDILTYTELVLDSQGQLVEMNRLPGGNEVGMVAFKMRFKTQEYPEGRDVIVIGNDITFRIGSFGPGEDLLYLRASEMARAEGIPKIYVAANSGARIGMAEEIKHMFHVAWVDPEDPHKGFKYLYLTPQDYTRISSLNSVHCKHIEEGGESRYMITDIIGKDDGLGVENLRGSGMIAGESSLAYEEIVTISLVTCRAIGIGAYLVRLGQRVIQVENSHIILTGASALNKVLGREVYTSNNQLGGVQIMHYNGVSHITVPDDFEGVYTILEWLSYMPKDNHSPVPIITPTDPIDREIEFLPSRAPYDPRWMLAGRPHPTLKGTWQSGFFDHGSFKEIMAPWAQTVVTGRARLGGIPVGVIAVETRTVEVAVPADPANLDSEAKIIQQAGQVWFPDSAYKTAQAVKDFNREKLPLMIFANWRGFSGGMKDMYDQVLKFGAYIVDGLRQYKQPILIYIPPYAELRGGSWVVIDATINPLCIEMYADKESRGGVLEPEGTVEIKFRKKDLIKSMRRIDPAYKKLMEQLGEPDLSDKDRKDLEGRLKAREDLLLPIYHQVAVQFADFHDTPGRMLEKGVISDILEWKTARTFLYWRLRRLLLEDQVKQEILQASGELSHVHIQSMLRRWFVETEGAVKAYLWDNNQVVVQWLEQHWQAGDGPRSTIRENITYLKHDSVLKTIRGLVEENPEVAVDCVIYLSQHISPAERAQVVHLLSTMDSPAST
Sequence of fACC2 (Q00955 whole entry): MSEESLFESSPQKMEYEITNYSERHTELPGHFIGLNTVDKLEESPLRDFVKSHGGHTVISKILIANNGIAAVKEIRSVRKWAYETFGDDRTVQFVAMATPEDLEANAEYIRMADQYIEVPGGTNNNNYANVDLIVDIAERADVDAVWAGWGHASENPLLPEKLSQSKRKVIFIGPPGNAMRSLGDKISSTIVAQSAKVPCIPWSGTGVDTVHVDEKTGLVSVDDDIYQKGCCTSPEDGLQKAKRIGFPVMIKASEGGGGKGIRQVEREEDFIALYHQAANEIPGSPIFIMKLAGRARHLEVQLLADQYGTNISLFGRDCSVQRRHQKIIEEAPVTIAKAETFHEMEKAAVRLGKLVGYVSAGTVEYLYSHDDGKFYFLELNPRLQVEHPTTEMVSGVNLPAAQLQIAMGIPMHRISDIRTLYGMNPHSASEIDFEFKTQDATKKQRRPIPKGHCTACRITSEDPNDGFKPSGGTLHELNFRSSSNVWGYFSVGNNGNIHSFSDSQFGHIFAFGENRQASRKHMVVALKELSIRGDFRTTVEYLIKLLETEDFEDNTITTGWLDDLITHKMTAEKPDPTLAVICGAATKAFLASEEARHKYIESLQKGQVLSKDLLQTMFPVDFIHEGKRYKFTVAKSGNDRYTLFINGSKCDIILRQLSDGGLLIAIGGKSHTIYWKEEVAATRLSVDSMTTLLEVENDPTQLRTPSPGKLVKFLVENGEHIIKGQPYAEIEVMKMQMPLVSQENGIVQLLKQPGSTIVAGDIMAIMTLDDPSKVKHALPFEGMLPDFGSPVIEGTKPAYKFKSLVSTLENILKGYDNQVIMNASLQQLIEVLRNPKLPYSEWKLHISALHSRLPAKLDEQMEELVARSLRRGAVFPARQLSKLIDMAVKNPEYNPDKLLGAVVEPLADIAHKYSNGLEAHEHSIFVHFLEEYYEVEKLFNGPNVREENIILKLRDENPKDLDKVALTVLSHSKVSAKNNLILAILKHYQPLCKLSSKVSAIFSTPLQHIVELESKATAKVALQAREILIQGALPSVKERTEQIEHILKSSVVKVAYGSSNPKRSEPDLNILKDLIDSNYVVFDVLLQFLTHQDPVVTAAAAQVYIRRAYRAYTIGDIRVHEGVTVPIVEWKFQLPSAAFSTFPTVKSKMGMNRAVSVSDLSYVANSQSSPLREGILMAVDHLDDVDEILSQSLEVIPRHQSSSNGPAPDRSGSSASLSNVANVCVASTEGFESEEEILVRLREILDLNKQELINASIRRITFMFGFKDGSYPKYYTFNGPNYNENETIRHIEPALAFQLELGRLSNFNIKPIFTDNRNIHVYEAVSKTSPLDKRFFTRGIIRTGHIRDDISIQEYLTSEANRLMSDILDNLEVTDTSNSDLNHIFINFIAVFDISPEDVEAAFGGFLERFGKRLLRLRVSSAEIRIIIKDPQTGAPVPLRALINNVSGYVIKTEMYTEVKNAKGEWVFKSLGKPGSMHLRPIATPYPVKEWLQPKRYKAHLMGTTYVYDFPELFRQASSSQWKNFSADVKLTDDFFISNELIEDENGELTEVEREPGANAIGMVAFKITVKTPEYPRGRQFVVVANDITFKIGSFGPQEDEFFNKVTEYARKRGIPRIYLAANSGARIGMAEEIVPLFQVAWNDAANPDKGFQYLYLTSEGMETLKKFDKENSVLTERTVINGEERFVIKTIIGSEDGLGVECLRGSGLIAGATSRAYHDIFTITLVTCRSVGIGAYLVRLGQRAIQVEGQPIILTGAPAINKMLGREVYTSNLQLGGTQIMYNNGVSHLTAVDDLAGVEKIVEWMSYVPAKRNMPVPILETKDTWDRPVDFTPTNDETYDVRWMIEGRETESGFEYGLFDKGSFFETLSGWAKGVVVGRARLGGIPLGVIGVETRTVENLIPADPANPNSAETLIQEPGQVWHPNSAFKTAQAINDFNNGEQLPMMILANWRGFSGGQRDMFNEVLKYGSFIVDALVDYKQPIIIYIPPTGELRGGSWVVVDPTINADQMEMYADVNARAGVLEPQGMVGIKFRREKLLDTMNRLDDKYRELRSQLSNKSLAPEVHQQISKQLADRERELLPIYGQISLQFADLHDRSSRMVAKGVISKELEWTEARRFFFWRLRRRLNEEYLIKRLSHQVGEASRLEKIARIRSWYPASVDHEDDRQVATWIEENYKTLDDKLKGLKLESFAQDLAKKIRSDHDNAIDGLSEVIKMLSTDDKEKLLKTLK

For the compound `O=C(c1c2ccccc2cc2ccccc12)N1CCC(N2CCC[C@@H](C(=O)N3CCOCC3)C2)CC1` [CP-640186], the IC50 in experiment [1] and in experiment [2] was ~60 nM each time.

Turning to `CCNC(=O)C(C)(C)n1c(=O)c2c(C)c(C(=O)OCC)sc2n(C[C@H](OC2CCOCC2)c2ccccc2OC)c1=O` [Compound I-1, ethyl (R)-3-(1-(ethylamino)-2-methyl-1-oxopropan-2-yl)-1-(2-(2-methoxyphenyl)-2-((tetrahydro-2H-pyran-4-yl)oxy)ethyl)-5-methyl-2,4-dioxo-1,2,3,4-tetrahydrothieno[2,3-d]pyrimidine-6-carboxylate], the IC50 in experiment [3] (Table 2a) was in the range of 3 to 10 nM; in experiment [3] (Table 2b (additional results)), 3 to 10 nM; in experiment [4] (Table 2a) it was 0.6 to 3 nM; in experiment [4] (Table 2b (additional results)), 0.3 to 3 nM. The MIC in [5] (Table 3a) was 0.25 to 1 µg/mL (≈ 0.415 to 1.66 µM); in experiment [5] (Table 3b (additional results)) it was 0.25 to 1 µg/mL (≈ 0.415 to 1.66 µM); in experiment [6] (Table 3a) it was 1.1 to 2 µg/mL (≈ 1.83 to 3.32 µM); in experiment [6] (Table 3b (additional results)) it was 2.1 to 4 µg/mL (≈ 3.49 to 6.65 µM); in experiment [7] (Table 3a) it was 0.25 to 1 µg/mL (≈ 0.415 to 1.66 µM); in [7] (Table 3b (additional results)), 2.1 to 4 µg/mL (≈ 3.49 to 6.65 µM). Besides, the IC90 in experiment [8] (Table 4a) and in [8] (Table 4b) was ≥ 50 µg/mL each time.

On to `CCOC(=O)c1sc2c(c1C)c(=O)n([C@H](C)C(=O)N(C)C(C)C)c(=O)n2C[C@H](OCCO)c1cc(F)ccc1OC` [Compound I-30, ethyl 1-((R)-2-(5-fluoro-2-methoxyphenyl)-2-(2-hydroxy-ethoxy)ethyl)-3-((R)-1-(isopropyl(methyl)amino)-1-oxopropan-2-yl)-5-methyl-2,4-dioxo-1,2,3,4-tetrahydrothieno[2,3-d]pyrimidine-6-carboxylate], for which the IC50 is 10 to 40 nM in [3] (Table 2b (additional results)) and 0.3 to 3 nM in [4] (Table 2b (additional results)). For the same compound, the MIC lay in the range of 1.1 to 2 µg/mL (≈ 1.85 to 3.37 µM) in experiment [5] (Table 3b (additional results)), 0.25 to 1 µg/mL (≈ 0.421 to 1.68 µM) in experiment [6] (Table 3b (additional results)) and 0.25 to 1 µg/mL (≈ 0.421 to 1.68 µM) in [7] (Table 3b (additional results)).

Turning to `CCOC(=O)c1sc2c(c1C)c(=O)n(C(C)(C)C(=O)NC(C)C)c(=O)n2CCc1cc(F)ccc1OCCC#N` [Compound I-45, ethyl 1-(2-(2-cyanoethoxy)-5-fluorophenethyl)-3-(1-(isopropylamino)-2-methyl-1-oxopropan-2-yl)-5-methyl-2,4-dioxo-1,2,3,4-tetrahydro-thieno[2,3-d]pyrimidine-6-carboxylate], the concentration for half-maximal inhibition (IC50) in experiment [3] (Table 2b (additional results)) was ≥ 40 nM; in experiment [4] (Table 2b (additional results)), 3 to 10 nM. Moreover, the IC90 in experiment [9] was 10 µg/mL (≈ 17.5 µM); in experiment [10], ≥ 50 µg/mL; in [11], ≥ 50 µg/mL; in experiment [8] (Table 4b), 2 µg/mL (≈ 3.49 µM); in experiment [12], 2 µg/mL (≈ 3.49 µM); in experiment [13] it was ≥ 50 µg/mL. Also, the IC90 in experiment [14] and in [15] was ≥ 50 µg/mL each time.
